# How the values were obtained:
# HIV-1 integrase = biological target: T1, HIV-1 integrase (Human immunodeficiency virus type 1 group M subtype B, UniProt P04585); assay: HIV integrase assay: strand transfer catalyzed by recombinant integrase; format: biochemical; conditions: inhibition of strand transfer activity
# T1 construct: Strand Transfer Catalyzed by Recombinant Integrase
# Procedure: Assays for the strand transfer activity of HIV-1 integrase were conducted in accordance with WO 02/30930 for recombinant integrase. […] For example, the compounds prepared in Examples 1 to 4 were tested in the integrase assay and found to have the IC50 values in Table B.
# Further description on conducting the assay using preassembled complexes is found in Wolfe, A. L. et al., J. Virol. 1996, 70: 1424-1432, Hazuda et al., J. Virol. 1997, 71: 7005-7011; Hazuda et al., Drug Design and Discovery 1997, 15: 17-24; and Hazuda et al., Science 2000, 287: 646-650.
# HIV = assay: Inhibition of acute HIV infection, single cycle infectivity ("vertical") assay in HeLa P4-2 cells; format: cell-based; conditions: Human immunodeficiency virus 1, IIIB / NL43, HeLaP4-2
# Procedure: An assay for measuring the inhibition of acute HIV infection with HeLa P4-2 cells in a single cycle infectivity assay (alternatively referred to as the “vertical” assay) was conducted in accordance with Joyce, J. G., et al., J. Biol. Chem. 2002, 277, 45811, Hazuda, D. J. et al., Science 2000, 287, 646, and Kimpton, J. et al, J. Virol. 1992, 66, 2232. Infectious virus was produced by transfecting 293T cells with HIV proviral DNA in which the integrase gene was derived from a IIIB isolate and the remainder of the HIV genome was derived from the NL4-3 isolate. […] For example, the compounds of Examples 1 to 4 were tested in this assay and found to have the IC50 values in Table C.
SMILES,IC50 (HIV-1 integrase),IC50 (HIV)
"C=CCc1c(O)c(=O)c2c(n1C)CCN(Cc1ccc(F)cc1)C2=O [Example 2, 2-Allyl-6-(4-fluorobenzyl)-3-hydroxy-1-methyl-7,8-dihydro-1,6-naphthyridine-4,5(1H,6H)-dione]",100 nM,5000 nM
"O=C1c2c(occ(O)c2=O)CCN1Cc1ccc(F)cc1 [Example 1, 6-(4-Fluorobenzyl)-3-hydroxy-7,8-dihydro-4H-pyrano[3,2-c]pyridine-4,5(6H)-dione]",3200 nM,43000 nM
"C=CCCn1c2c(c(=O)c(O)c1C(C)C=C)C(=O)N(Cc1ccc(F)cc1)CC2 (centres unmarked) [Example 3, 1-But-3-en-1-yl-6-(4-fluorobenzyl)-3-hydroxy-2-(1-methylprop-2-en-1-yl)-7,8-dihydro-1,6-napthyridine-4,5(1H,6H)-dione]",100 nM,1000 nM
"CC1CCCCn2c3c(c(=O)c(O)c21)C(=O)N(Cc1ccc(F)cc1)CC3 (centres unmarked) [Example 4, 3-(4-Fluorobenzyl)-6-hydroxy-7-methyl-2,3,8,9,10,11-hexahydroazepino[1,2-a]-1,6-napthyridine-4,5(1H,7H)-dione]",120 nM,5000 nM

# Source: US20120220571A1, “HIV INTEGRASE INHIBITORS” (priority 2009, published 2012)
